Columns and labels:
Format in all cases: functional
[1] = tested on: CCRF-CEM; assay: Cytotoxicity against human CCRF-CEM cells assessed as growth inhibition after 48 hrs by sulforhodamine B assay
[2] = tested on: COLO 205; assay: Cytotoxicity against human COLO205 cells assessed as growth inhibition after 48 hrs by sulforhodamine B assay; settings: COLO 205, 48 h
[3] = tested on: LOX IMVI; assay: Cytotoxicity against human LOXIMVI cells assessed as growth inhibition after 48 hrs by sulforhodamine B assay
[4] = tested on: M14; assay: Cytotoxicity against human M14 cells assessed as growth inhibition after 48 hrs by sulforhodamine B assay; settings: M14, 48 h
[5] = tested on: MDA-MB-435; assay: Cytotoxicity against human MDA-MB-435 cells assessed as growth inhibition after 48 hrs by sulforhodamine B assay; settings: MDA-MB-435, 48 h
[6] = tested on: OVCAR-3; assay: Cytotoxicity against human OVCAR3 cells assessed as growth inhibition after 48 hrs by sulforhodamine B assay; settings: OVCAR-3, 48 h
[7] = tested on: PC-3; assay: Cytotoxicity against human PC3 cells assessed as growth inhibition after 48 hrs by sulforhodamine B assay; settings: PC-3, 48 h
[8] = tested on: DU-145; assay: Cytotoxicity against human DU145 cells assessed as growth inhibition after 48 hrs by sulforhodamine B assay; settings: DU-145, 48 h; for CC50: read-out: LC50 (the source's name)
[9] = tested on: SK-MEL-28; assay: Cytotoxicity against human SK-MEL-28 cells assessed as cell growth at 0.01 uM after 48 hrs by sulforhodamine B assay relative to control; settings: SK-MEL-28, 48 h, read-out: Activity
[10] = tested on: KM12; assay: Cytotoxicity against human KM12 cells assessed as cell growth at 0.01 uM after 48 hrs by sulforhodamine B assay relative to control; settings: KM12, 48 h, read-out: Activity
[11] = tested on: HT-29; assay: Cytotoxicity against human HT-29 cells assessed as cell growth at 0.01 uM after 48 hrs by sulforhodamine B assay relative to control; settings: HT-29, 48 h, read-out: Activity
[12] = tested on: HCT-15; assay: Cytotoxicity against human HCT15 cells assessed as cell growth at 0.01 uM after 48 hrs by sulforhodamine B assay relative to control; settings: HCT-15, 48 h, read-out: Activity
[13] = tested on: HCC 2998; assay: Cytotoxicity against human HCC2998 cells assessed as cell growth at 0.01 uM after 48 hrs by sulforhodamine B assay relative to control; settings: HCC 2998, 48 h, read-out: Activity
[14] = tested on: TK-10; assay: Cytotoxicity against human TK10 cells assessed as cell growth at 0.01 uM after 48 hrs by sulforhodamine B assay relative to control; settings: TK-10, 48 h, read-out: Activity
[15] = tested on: Hs-578T; assay: Cytotoxicity against human Hs 578T cells assessed as cell growth at 0.01 uM after 48 hrs by sulforhodamine B assay relative to control; settings: read-out: Activity
[16] = tested on: MDA-MB-468; assay: Cytotoxicity against human MDA-MB-468 cells assessed as cell growth at 0.01 uM after 48 hrs by sulforhodamine B assay relative to control; settings: MDA-MB-468, 48 h, read-out: Activity
[17] = tested on: SR; assay: Cytotoxicity against human SR cells assessed as cell growth at 0.1 uM after 48 hrs by sulforhodamine B assay relative to control; settings: read-out: Activity
[18] = tested on: COLO 205; assay: Cytotoxicity against human COLO205 cells assessed as cell growth at 0.1 uM after 48 hrs by sulforhodamine B assay relative to control; settings: COLO 205, 48 h, read-out: Activity
[19] = tested on: HCC 2998; assay: Cytotoxicity against human HCC2998 cells assessed as cell growth at 0.1 uM after 48 hrs by sulforhodamine B assay relative to control; settings: HCC 2998, 48 h, read-out: Activity
[20] = tested on: UACC-257; assay: Cytotoxicity against human UACC257 cells assessed as cell growth at 0.1 uM after 48 hrs by sulforhodamine B assay relative to control; settings: UACC-257, 48 h, read-out: Activity
[21] = tested on: SK-OV-3; assay: Cytotoxicity against human SKOV3 cells assessed as cell growth at 0.1 uM after 48 hrs by sulforhodamine B assay relative to control; settings: SK-OV-3, 48 h, read-out: Activity
[22] = tested on: SN12C; assay: Cytotoxicity against human SN12C cells assessed as cell growth at 0.1 uM after 48 hrs by sulforhodamine B assay relative to control; settings: read-out: Activity
[23] = tested on: UO-31; assay: Cytotoxicity against human UO31 cells assessed as cell growth at 0.1 uM after 48 hrs by sulforhodamine B assay relative to control; settings: UO-31, 48 h, read-out: Activity
[24] = tested on: HOP-62; assay: Cytotoxicity against human HOP62 cells assessed as cell growth at 1 uM after 48 hrs by sulforhodamine B assay relative to control; settings: HOP-62, 48 h, read-out: Activity
[25] = tested on: KM12; assay: Cytotoxicity against human KM12 cells assessed as cell growth at 1 uM after 48 hrs by sulforhodamine B assay relative to control; settings: KM12, 48 h, read-out: Activity
[26] = tested on: Hs-578T; assay: Cytotoxicity against human Hs 578T cells assessed as cell growth at 1 uM after 48 hrs by sulforhodamine B assay relative to control; settings: read-out: Activity
[27] = tested on: COLO 205; assay: Cytotoxicity against human COLO205 cells assessed as cell growth at 10 uM after 48 hrs by sulforhodamine B assay relative to control; settings: COLO 205, 48 h, read-out: Activity
[28] = tested on: HCC 2998; assay: Cytotoxicity against human HCC2998 cells assessed as cell growth at 10 uM after 48 hrs by sulforhodamine B assay relative to control; settings: HCC 2998, 48 h, read-out: Activity
[29] = tested on: HCT-116; assay: Cytotoxicity against human HCT116 cells assessed as cell growth at 10 uM after 48 hrs by sulforhodamine B assay relative to control; settings: HCT-116, 48 h, read-out: Activity
[30] = tested on: HCT-15; assay: Cytotoxicity against human HCT15 cells assessed as cell growth at 10 uM after 48 hrs by sulforhodamine B assay relative to control; settings: HCT-15, 48 h, read-out: Activity
[31] = tested on: SNB-19; assay: Cytotoxicity against human SNB19 cells assessed as cell growth at 10 uM after 48 hrs by sulforhodamine B assay relative to control; settings: SNB-19, 48 h, read-out: Activity
[32] = tested on: OVCAR-5; assay: Cytotoxicity against human OVCAR5 cells assessed as cell growth at 10 uM after 48 hrs by sulforhodamine B assay relative to control; settings: OVCAR-5, 48 h, read-out: Activity
[33] = tested on: OVCAR-8; assay: Cytotoxicity against human OVCAR8 cells assessed as cell growth at 10 uM after 48 hrs by sulforhodamine B assay relative to control; settings: OVCAR-8, 48 h, read-out: Activity
[34] = tested on: MDA-MB-231; assay: Cytotoxicity against human MDA-MB-231 cells assessed as cell growth at 10 uM after 48 hrs by sulforhodamine B assay relative to control; settings: MDA-MB-231, 48 h, read-out: Activity
[35] = tested on: A498; assay: Cytotoxicity against human A498 cells assessed as cell growth at 100 uM after 48 hrs by sulforhodamine B assay relative to control; settings: A498, 48 h, read-out: Activity

COc1ccc(C(=O)/C=C/c2cc(-c3ccc(OC)c(OC)c3)n[nH]2)cc1OC
GI50 [1]: 0.364 µM
TGI [1]: 5.52 µM
GI50 [2]: 1.55 µM
TGI [2]: 3.1 µM
GI50 [3]: 1.29 µM
TGI [3]: 2.7 µM
GI50 [4]: 1.91 µM
TGI [4]: 4.11 µM
GI50 [5]: 1.72 µM
GI50 [6]: 1.96 µM
TGI [6]: 4.72 µM
GI50 [7]: 1.98 µM
TGI [7]: 35.7 µM
GI50 [8]: 1.64 µM
TGI [8]: 4.8 µM
CC50 [8]: 17.4 µM
growth at 0.01 µM [9]: 89%
growth at 0.01 µM [10]: 102%
growth at 0.01 µM [11]: 98%
growth at 0.01 µM [12]: 96%
growth at 0.01 µM [13]: 107%
growth at 0.01 µM [14]: 98%
growth at 0.01 µM [15]: 93%
growth at 0.01 µM [16]: 87%
growth at 0.1 µM [17]: 81%
growth at 0.1 µM [18]: 98%
growth at 0.1 µM [19]: 101%
growth at 0.1 µM [20]: 94%
growth at 0.1 µM [21]: 97%
growth at 0.1 µM [22]: 98%
growth at 0.1 µM [23]: 91%
growth at 1 µM [24]: 73%
growth at 1 µM [25]: 37%
growth at 1 µM [26]: 87%
growth at 10 µM [27]: -84%
growth at 10 µM [28]: -94%
growth at 10 µM [29]: -69%
growth at 10 µM [30]: -19%
growth at 10 µM [31]: -48%
growth at 10 µM [32]: -30%
growth at 10 µM [33]: 8%
growth at 10 µM [34]: -18%
growth at 100 µM [35]: -55%

COc1ccc(C(=O)/C=C/c2cc(-c3cc(OC)c(OC)c(OC)c3)n[nH]2)cc1OC
LC50 (concentration killing 50% of cells) [1]: > 100 µM
TGI [1]: 3.93 µM
LC50 [2]: 5.92 µM
TGI [2]: 3.21 µM
LC50 [3]: 5.53 µM
TGI [3]: 2.76 µM
LC50 (concentration killing 50% of cells) [4]: 7.38 µM
TGI [4]: 3.69 µM
LC50 [5]: 5.52 µM
TGI [5]: 2.71 µM
LC50 [6]: 5.97 µM
TGI [6]: 3.17 µM
LC50 [7]: 5.76 µM
TGI [7]: 2.8 µM
TGI [8]: 1.84 µM
CC50 [8]: 4.76 µM
growth at 0.01 µM [9]: 97%
growth at 0.01 µM [10]: 97%
growth at 0.01 µM [11]: 100%
growth at 0.01 µM [12]: 97%
growth at 0.01 µM [13]: 93%
growth at 0.01 µM [14]: 85%
growth at 0.01 µM [15]: 98%
growth at 0.01 µM [16]: 89%
growth at 0.1 µM [17]: 81%
growth at 0.1 µM [18]: 106%
growth at 0.1 µM [19]: 88%
growth at 0.1 µM [20]: 89%
growth at 0.1 µM [21]: 105%
growth at 0.1 µM [22]: 94%
growth at 0.1 µM [23]: 87%
growth at 1 µM [24]: 77%
growth at 1 µM [25]: 54%
growth at 1 µM [26]: 91%
growth at 10 µM [27]: -93%
growth at 10 µM [28]: -85%
growth at 10 µM [29]: -65%
growth at 10 µM [30]: -78%
growth at 10 µM [31]: -80%
growth at 10 µM [32]: -93%
growth at 10 µM [33]: -89%
growth at 10 µM [34]: -82%
growth at 100 µM [35]: -96%

From ChEMBL document CHEMBL4138123, “Design, synthesis and biological evaluation of novel pyrazolochalcones as potential modulators of PI3K/Akt/mTOR pathway and inducers of apoptosis in breast cancer cells” (Eur J Med Chem, 2017)
